Measured values: patent US4605641A, “Synthetic vasoactive intestinal peptide analogs” (Hoffmann-La Roche Inc., priority 1984, dated 1986)
Peptide text beside a SMILES is read from it.

System: guinea pig trachea smooth muscle
Assay: Bronchodilator (relaxant) effect on isolated guinea pig tracheal rings
Assay type: cell-based
Conditions: for Relative Potency: guinea pig trachea, relative to VIP = 100%; for EC50: guinea pig tracheal rings, relaxation as % of maximum response to VIP 10^-6 M, three tissues pooled, linear regression, read-out: EC50 (M), agonist activity, bronchodilator effect
From the text: The bronchodilatory effect of VIP analogs was studied in a model utilizing guinea pig trachea. Wasserman, M. A. et al. "Comparative In Vitro Tracheal Relaxant Effects of Porcine and Hen VIP" in Vasoactive Intestinal Peptide ed. Said, S.I., Raven Press (New York, 1982).
All tissues were taken from male albino guinea pigs weighing 400-600 g, anesthetized with urethane 2 g/kg i.p. After exsanguination the trachea was removed and divided into four ring segments (3 mm length). Each ring was suspended by two 30 guage stainless steel wires in a 10 ml jacket tissue bath and attached via 4-0 silk thread to a Grass force displacement transducer (model FT03C, Grass Instrument Co., Quincy, MA), for isometric recording of tension. The smooth muscle was bathed in modified Krebs solution of the following composition: NaCl, 120 mM; KCl, 4.7 mM; CaCl2, 2.5 mM; MgSO4.7H2 O; 1.2 mM; NaHCO3, 25 mM; KH2 PO4 monobasic, 1.2 mM; and dextrose, 10 mM. Tissue baths were maintained at 37.5° C. and constantly bubbled with 95% O2 and 5% CO2. Responses were recorded on an 8 channel and 4 channel Hewlett-Packard (model 7702B and 7754A, respectively) recorder (Hewlett Packard, Paramus, NJ). Tracheal rings were placed under a resting tension of 1.5 g which was determined to be at or near optimal in preliminary experiments. Frequent readjustments of tension were required during the 60 min. stabilization period which followed. Tissues were rinsed at 15 min. intervals.
Cumulative concentration response curves were obtained for each tissue by successive […] in the bath concentration of VIP or potential VIP agonists according to the method of VanRossum J. M., Arch. Int Pharmacodyn, 143, 299-330 (1963). Only one cummulative dose response curve was obtained on a single piece of tissue. To minimize variability between tissues, relaxant responses are expressed as a percentage of the maximum response obtainable to VIP (10^-6 M=100%) added at the end of the concentration response curve. Responses obtained from three tissues were pooled and EC50 values were determined by linear regression.

Row | EC50 [M] | SMILES | Relative Potency [%]
1 | 8e-09 | CCCC[C@H](NC(=O)[C@H](CCC(N)=O)NC(=O)[C@H](CCCCN)NC(=O)[C@H](CCCNC(=N)N)NC(=O)[C@H](CC(C)C)NC(=O)[C@H](CCCNC(=N)N)NC(=O)[C@@H](NC(=O)[C@H](Cc1ccc(O)cc1)NC(=O)[C@H](CC(N)=O)NC(=O)[C@H](CC(=O)O)NC(=O)[C@@H](NC(=O)[C@H](Cc1ccccc1)NC(=O)[C@@H](NC(=O)[C@H](C)NC(=O)[C@H](CC(=O)O)NC(=O)[C@H](CO)NC(=O)[C@@H](N)Cc1c[nH]cn1)C(C)C)[C@@H](C)O)[C@@H](C)O)C(=O)N[C@@H](C)C(=O)N[C@H](C(=O)N[C@@H](CCCCN)C(=O)N[C@@H](CCCCN)C(=O)N[C@@H](Cc1ccc(O)cc1)C(=O)N[C@@H](CC(C)C)C(=O)N[C@H](C(=O)N[C@@H](CO)C(=O)N[C@H](C(=O)N[C@@H](CC(C)C)C(=O)N[C@@H](CC(N)=O)C(N)=O)[C@@H](C)CC)[C@@H](C)O)C(C)C [(Nle^17, Thr^24)--VIP, (Nle^17, Thr^24)VIP] (HELM PEPTIDE1{H.S.D.A.V.F.T.D.N.Y.T.R.L.R.K.Q.[Nle].A.V.K.K.Y.L.T.S.I.L.N.[am]}$$$$V2.0) | 125
2 | 9.9e-09 | CCCC[C@H](NC(=O)[C@H](CCC(N)=O)NC(=O)[C@H](CCCCN)NC(=O)[C@H](CCCNC(=N)N)NC(=O)[C@H](CC(C)C)NC(=O)[C@H](CCCNC(=N)N)NC(=O)[C@@H](NC(=O)[C@H](Cc1ccc(O)cc1)NC(=O)[C@H](CC(N)=O)NC(=O)[C@H](CC(=O)O)NC(=O)[C@@H](NC(=O)[C@H](Cc1ccccc1)NC(=O)[C@@H](NC(=O)[C@H](C)NC(=O)[C@H](CC(=O)O)NC(=O)[C@H](CO)NC(=O)[C@@H](N)Cc1c[nH]cn1)C(C)C)[C@@H](C)O)[C@@H](C)O)C(=O)N[C@@H](C)C(=O)N[C@H](C(=O)N[C@@H](CCCCN)C(=O)N[C@@H](CCCCN)C(=O)N[C@@H](Cc1ccc(O)cc1)C(=O)N[C@@H](CC(C)C)C(=O)N[C@@H](CC(N)=O)C(=O)N[C@H](C(=O)N[C@H](C(=O)N[C@@H](CC(C)C)C(=O)N[C@@H](CC(N)=O)C(N)=O)[C@@H](C)CC)[C@@H](C)O)C(C)C [(Nle^17, Thr^25)--VIP, (Nle^17, Thr^25)VIP] (HELM PEPTIDE1{H.S.D.A.V.F.T.D.N.Y.T.R.L.R.K.Q.[Nle].A.V.K.K.Y.L.N.T.I.L.N.[am]}$$$$V2.0) | 101
3 | 1.5e-08 | CCCC[C@H](NC(=O)[C@H](CCC(N)=O)NC(=O)[C@H](CCCCN)NC(=O)[C@H](CCCNC(=N)N)NC(=O)[C@H](CC(C)C)NC(=O)[C@H](CCCCN)NC(=O)[C@@H](NC(=O)[C@H](Cc1ccc(O)cc1)NC(=O)[C@H](CC(N)=O)NC(=O)[C@H](CC(=O)O)NC(=O)[C@@H](NC(=O)[C@H](Cc1ccccc1)NC(=O)[C@@H](NC(=O)[C@H](C)NC(=O)[C@H](CC(=O)O)NC(=O)[C@H](CO)NC(=O)[C@H](Cc1c[nH]cn1)NC(C)=O)C(C)C)[C@@H](C)O)[C@@H](C)O)C(=O)N[C@@H](C)C(=O)N[C@H](C(=O)N[C@@H](CCCCN)C(=O)N[C@@H](CCCCN)C(=O)N[C@@H](Cc1ccc(O)cc1)C(=O)N[C@@H](CC(C)C)C(=O)N[C@@H](CC(N)=O)C(=O)N[C@@H](CO)C(=O)N[C@H](C(=O)N[C@@H](CC(C)C)C(=O)N[C@@H](CC(N)=O)C(N)=O)[C@@H](C)CC)C(C)C [Ac--(Lys^12, Nle^17)--VIP, Ac-(Lys^12, Nle^17)VIP] (HELM PEPTIDE1{[ac].H.S.D.A.V.F.T.D.N.Y.T.K.L.R.K.Q.[Nle].A.V.K.K.Y.L.N.S.I.L.N.[am]}$$$$V2.0) | 67
